Patent US11040952B2, “Phthalazinone compound, method for preparation thereof, pharmaceutical composition thereof, and use thereof” (SHANGHAI INSTITUTE OF MATERIA MEDICA, CHINESE ACADEMY OF …, priority 2017, dated 2021)
pIC50: −log10 of the molar value.

Tests used:
[1] = MTT assay for cytotoxicity; format: cell-based, Human; details: human, HepG2.2.15 cells, half (50%) lethal concentration
Procedure: (§1) Human hepatoblastoma cell line HepG2.2.15 stably transfected with full-length HBV (provided by Shanghai Institute of Materia Medica, Chinese Academy of Sciences)
(§2) HepG2.2.15 cells were cultured and passaged according to conventional methods. DMEM containing 10% (v/v) bovine serum and the selective antibiotic G418 was used as a medium, the cells were cultured in an incubator at 37° C. under 5% CO2 for 8 days (the medium was exchanged on the 4th day).
(§3) The test compounds were formulated with DMSO into a 40 mM stock solution, which was then prepared into a solution at the defined highest concentration using a DMEM medium containing 10% Hyclone™ Fetal Bovine Serum, followed by diluting the same; the positive drug was lamivudine, which was also prepared into a solution at the defined concentration with the DMEM medium containing 10% Hyclone™ Fetal Bovine Serum.
HepG2.2.15 cells were seeded at 5×10^3 cells/well in a 96-well plate, and cultured for eight days in the presence of the compounds according to the above method, and then 200 μl of the supernatant was taken out, followed by addition of the MTT solution. After 4 hours of culture, a lysate was added. After 12 hours of culture, the OD570 was measured on a microplate reader. By comparing with the absorbance of the control well, the percentage of viable cells was calculated, and CC50, the concentration required for the reduction of cell viability by 50%, was calculated.

HBV = HBV DNA content in the supernatant of cell culture (real-time PCR); format: cell-based, hepatitis B virus (HBV); details: Hepatitis B virus, HepG2.2.15, 192 h, inhibition of HBV DNA replication, HepG2.2.15 supernatant, 8 days
Procedure: as §1, §2, §3
HepG2.2.15 cells were treated with compounds at different concentrations for 8 days (the medium was exchanged on the 4th day), and the supernatant was aspirated, and the HBV DNA contained in the mature virus particles in the supernatant was quantitated by using a real-time PCR method.
1) The supernatant DNA from a 96-well plate, 200 μl/well, was collected, wherein the contents in the duplicate wells were collected into a same EP tube, and centrifuged at 4000 rcf for 5 min, and the supernatant was collected;
2) 200 μl of the supernatant was added into a 1.5 ml EP tube, added with 20 μl of proteinase K and 200 μl of Buffer AL (Qiagen, DNeasy® Blood & Tissue Kit), vortexed to be mixed thoroughly, and incubated at 56° C. for 10 min;
3) 200 μl of ethanol was added and vortexed to be mixed thoroughly;
4) all the liquid obtained from step 3) was added into a DNeasy Mini spin column (Qiagen, DNeasy® Blood & Tissue Kit) placed in a 2 ml waste liquid collection tube, and centrifuged at 6000 rcf for 1 min, and the supernatant was discarded;
5) the DNeasy Mini spin column was placed in a new 2 ml waste liquid collection tube, added with 500 μl of Buffer AW1 (Qiagen, DNeasy® Blood & Tissue Kit), and centrifuged at 6000 rcf for 1 min, and the supernatant was discarded;
6) the DNeasy Mini spin column was placed in a new 2 ml waste liquid collection tube, added with 500 μl of Buffer AW2, (Qiagen, DNeasy® Blood & Tissue Kit), and centrifuged at 20000 rcf for 3 min, and the supernatant was discarded;
7) the DNeasy Mini spin column was placed in anew 1.5 ml EP tube, 50 μl of Buffer AE (Qiagen, DNeasy® Blood & Tissue Kit) was pipetted and directly applied onto the membrane of the DNeasy Mini spin column, which was then left at room temperature for 5 min, and centrifuged at 6000 rcf for 1 min to elute the DNA from the membrane, the DNeasy Mini spin column was discarded, and the DNA sample was collected and stored at −20° C.
1) Standard curve: 1e^7-1e^4 IU/ml, the sample amount was 1 μl, a blank well was set so as to check whether the reaction system is polluted or not;
2) 1 μl of a DNA sample was added in sequence;
3) Addition of enzyme and reaction buffer: two tubes of the reaction solution were first added into the enzyme, mixed well and centrifuged slightly, placed on ice, added with the sample, followed by addition of 19 μl of the enzyme reaction solution, wherein, during the addition, the DNA sample should be sure of not being touched to cause contamination;
4) the sample was sealed with a sealing film and centrifuged;
Stage 2: 10 cycles • Step 1: 93° C., 45 s • Step 2: 55° C., 1 min Stage 3: 45 cycles • Step 1: 93° C., 30 s • Step 2: 55° C., 45 s
Detection: data were collected after completing the step 2 (55° C., 45 s) of the stage 3.
The experimental data were processed by using the Origin software and IC50 was calculated.

O=c1c2ccccc2c(-c2ccc(N3CCC3)nc2F)nn1Cc1ccc(Cl)cc1 [Compound I-18]
CC50 at 8 days [1]: 42.9 µM
pIC50 (HBV): 5.92

N#Cc1ccc(Cn2nc(-c3ccc(CO)nc3F)c3ccccc3c2=O)cc1 [IV-20]
CC50 at 8 days [1]: > 100 µM
pIC50 (HBV): 6.52

CN(C)CCNc1nc(F)c(-c2nn(Cc3ccc(C#N)cc3)c(=O)c3ccccc23)cc1Cl [IV-38]
CC50 at 8 days [1]: 9.76 µM
pIC50 (HBV): 6.46

Cc1ncccc1-c1nn(Cc2ccc(C#N)cc2)c(=O)c2ccccc12 [IV-3]
CC50 at 8 days [1]: > 100 µM
pIC50 (HBV): 5.26

N#Cc1ccc(Cn2nc(-c3cc(Cl)c(NCCCO)nc3F)c3ccccc3c2=O)cc1 [IV-67]
CC50 at 8 days [1]: > 100 µM
pIC50 (HBV): 8.38

COCNc1ccc(-c2nn(Cc3ccc(Cl)cc3)c(=O)c3ccccc23)c(F)n1 [Compound I-15]
CC50 at 8 days [1]: > 100 µM
pIC50 (HBV): 5.21

CN(C)c1ccc(-c2nn(Cc3ccc(Cl)cc3)c(=O)c3ccccc23)c(F)n1 [Compound I-13]
CC50 at 8 days [1]: 32.7 µM
pIC50 (HBV): 5.92

N#Cc1ccc(Cn2nc(-c3cccnc3C#N)c3ccccc3c2=O)cc1 [IV-4]
CC50 at 8 days [1]: > 100 µM
pIC50 (HBV): 5.48

N#Cc1ccc(Cn2nc(-c3cc(CN4CCOCC4)cnc3F)c3ccccc3c2=O)cc1 [Compound I-45]
CC50 at 8 days [1]: > 100 µM
pIC50 (HBV): 5.70

N#Cc1ccc(Cn2nc(-c3ccc(NC4COC4)nc3F)c3ccccc3c2=O)cc1 [IV-16]
CC50 at 8 days [1]: 88.3 µM
pIC50 (HBV): 6.00

[2H]C([2H])([2H])OC([2H])([2H])c1ccc(-c2nn(Cc3ccc(Cl)cc3)c(=O)c3ccccc23)c(F)n1 [Compound I-36]
CC50 at 8 days [1]: 89 µM
pIC50 (HBV): 5.82

Cc1ccc(-c2nn(Cc3ccc(C#N)cc3)c(=O)c3cc(C)c(C)cc23)c(F)n1 [Compound V-11]
CC50 at 8 days [1]: > 100 µM
pIC50 (HBV): 5.92

COCCCNc1ccc(-c2nn(Cc3ccc(C#N)cc3)c(=O)c3ccccc23)c(F)n1 [IV-32]
CC50 at 8 days [1]: 43.7 µM
pIC50 (HBV): 6.72

[2H]C([2H])(c1ccc(Cl)cc1)n1nc(-c2ccc(C)nc2F)c2ccccc2c1=O [Compound I-25]
CC50 at 8 days [1]: > 100 µM
pIC50 (HBV): 5.89

CS(=O)(=O)CCNc1ccc(-c2nn(Cc3ccc(C#N)cc3)c(=O)c3ccccc23)c(F)n1 [IV-74]
CC50 at 8 days [1]: > 100 µM
pIC50 (HBV): 6.89

CC(C)(C)Nc1ccc(-c2nn(Cc3ccc(C#N)cc3)c(=O)c3ccccc23)c(F)n1 [IV-12]
CC50 at 8 days [1]: 46.3 µM
pIC50 (HBV): 5.43

N#Cc1ncc(-c2nn(Cc3ccc(Cl)cc3)c(=O)c3ccccc23)cn1 [II-2]
CC50 at 8 days [1]: 32.4 µM
pIC50 (HBV): 5.35

N#Cc1ccc(Cn2nc(-c3cc(Cl)c(NCCO)nc3F)c3ccccc3c2=O)cc1 [IV-77]
CC50 at 8 days [1]: 32.1 µM
pIC50 (HBV): 7.56

O=c1c2ccccc2c(-c2ccc(NC3CC3)nc2F)nn1Cc1ccc(Cl)cc1 [Compound I-16]
CC50 at 8 days [1]: 20.1 µM
pIC50 (HBV): 6.30

COCCNc1nc(F)c(-c2nn(Cc3ccc(Cl)cc3)c(=O)c3ccccc23)cc1Cl [IV-29]
CC50 at 8 days [1]: 26.6 µM
pIC50 (HBV): 7.36

[2H]C([2H])(c1ccc(-c2nn(Cc3ccc(Cl)cc3)c(=O)c3ccccc23)c(F)n1)N(C)C [Compound I-37]
CC50 at 8 days [1]: 95 µM
pIC50 (HBV): 5.57

N#Cc1ccc(Cn2nc(-c3ccc(NC4CC4)nc3F)c3ccccc3c2=O)cc1 [IV-13]
CC50 at 8 days [1]: 78.5 µM
pIC50 (HBV): 5.42

CCNCCCNc1ccc(-c2nn(Cc3ccc(C#N)cc3)c(=O)c3ccccc23)c(F)n1 [IV-53]
CC50 at 8 days [1]: 18.1 µM
pIC50 (HBV): 5.97

CCOC(=O)CCCNc1nc(F)c(-c2nn(Cc3ccc(C#N)cc3)c(=O)c3ccccc23)cc1Cl [IV-36]
CC50 at 8 days [1]: > 100 µM
pIC50 (HBV): 6.32

CCNCCCCNc1nc(F)c(-c2nn(Cc3ccc(C#N)cc3)c(=O)c3ccccc23)cc1Cl [IV-55]
CC50 at 8 days [1]: 2.56 µM
pIC50 (HBV): 7.05

O=c1c2ccccc2c(-c2ccncc2)nn1Cc1ccc(Cl)cc1 [Compound I-1]
CC50 at 8 days [1]: > 100 µM
pIC50 (HBV): 5.14

CC(C)(C)OC(=O)CCNc1nc(F)c(-c2nn(Cc3ccc(C#N)cc3)c(=O)c3ccccc23)cc1Cl [IV-62]
CC50 at 8 days [1]: > 100 µM
pIC50 (HBV): 6.35

Cc1cnc(-c2nn(Cc3ccc(Cl)cc3)c(=O)c3ccccc23)cn1 [III-1]
CC50 at 8 days [1]: 87.8 µM
pIC50 (HBV): 5.21

COC(=O)CCNc1nc(F)c(-c2nn(Cc3ccc(C#N)cc3)c(=O)c3ccccc23)cc1Cl [IV-73]
CC50 at 8 days [1]: > 100 µM
pIC50 (HBV): 6.67

N#Cc1ccc(Cn2nc(-c3ccc(CN4CCOCC4)nc3F)c3ccccc3c2=O)cc1 [IV-24]
CC50 at 8 days [1]: > 100 µM
pIC50 (HBV): 6.46

Nc1ncc(-c2nn(Cc3ccc(Cl)cc3)c(=O)c3ccccc23)cn1 [II-1]
CC50 at 8 days [1]: 41.5 µM
pIC50 (HBV): 5.42

CN(C)c1ccc(-c2nn(Cc3ccc(C#N)cc3)c(=O)c3ccccc23)c(F)n1 [IV-9]
CC50 at 8 days [1]: > 100 µM
pIC50 (HBV): 5.89

CC(C)(C)OC(=O)NCCCCNc1ccc(-c2nn(Cc3ccc(C#N)cc3)c(=O)c3ccccc23)c(F)n1 [IV-45]
CC50 at 8 days [1]: > 100 µM
pIC50 (HBV): 6.43

COc1cc2c(-c3ccc(C)nc3F)nn(Cc3ccc(C#N)cc3)c(=O)c2cc1OC [Compound V-12]
CC50 at 8 days [1]: > 100 µM
pIC50 (HBV): 5.35

CCOC(=O)CNc1ccc(-c2nn(Cc3ccc(C#N)cc3)c(=O)c3ccccc23)c(F)n1 [IV-34]
CC50 at 8 days [1]: > 100 µM
pIC50 (HBV): 4.80

COCc1ccc(-c2nn(Cc3ccc(Cl)cc3)c(=O)c3ccccc23)c(F)n1 [Compound I-32]
CC50 at 8 days [1]: > 100 µM
pIC50 (HBV): 6.00

N#Cc1ccc(Cn2nc(-c3cc(Cl)cnc3F)c3ccccc3c2=O)c(Cl)c1 [Compound I-41]
CC50 at 8 days [1]: 46.6 µM
pIC50 (HBV): 6.97

[2H]C([2H])(OC)c1ccc(-c2nn(Cc3ccc(Cl)cc3)c(=O)c3ccccc23)c(F)n1 [Compound I-35]
CC50 at 8 days [1]: > 100 µM
pIC50 (HBV): 6.52

N#Cc1ncccc1-c1nn(Cc2ccc(Cl)cc2)c(=O)c2ccccc12 [Compound I-8]
CC50 at 8 days [1]: > 100 µM
pIC50 (HBV): 5.28

O=c1c2ccccc2c(-c2ccc(CN3CCOCC3)nc2F)nn1Cc1ccc(Cl)cc1 [Compound I-29]
CC50 at 8 days [1]: > 100 µM
pIC50 (HBV): 5.34

CC(C)(C)Nc1ccc(-c2nn(Cc3ccc(Cl)cc3)c(=O)c3ccccc23)c(F)n1 [Compound I-14]
CC50 at 8 days [1]: 10.3 µM
pIC50 (HBV): 5.68

N#Cc1ccc(Cn2nc(-c3ccc(NCCCO)nc3F)c3ccccc3c2=O)cc1 [IV-66]
CC50 at 8 days [1]: 94 µM
pIC50 (HBV): 6.74

N#Cc1ccc(Cn2nc(-c3ccc(NCCCCO)nc3F)c3ccccc3c2=O)cc1 [IV-68]
CC50 at 8 days [1]: > 100 µM
pIC50 (HBV): 6.48

CS(=O)(=O)CCNc1nc(F)c(-c2nn(Cc3ccc(C#N)cc3)c(=O)c3ccccc23)cc1Cl [IV-75]
CC50 at 8 days [1]: > 100 µM
pIC50 (HBV): 7.44

N#Cc1ccc(Cn2nc(-c3cc(Cl)c(NCC(O)CO)nc3F)c3ccccc3c2=O)cc1 (stereo not drawn) [IV-80]
CC50 at 8 days [1]: > 100 µM
pIC50 (HBV): > 7.01

N#Cc1ccc(Cn2nc(-c3cc(O)cnc3F)c3ccccc3c2=O)cc1 [Compound I-43]
CC50 at 8 days [1]: > 100 µM
pIC50 (HBV): 5.80

CCOC(=O)CCNc1ccc(-c2nn(Cc3ccc(C#N)cc3)c(=O)c3ccccc23)c(F)n1 [IV-70]
CC50 at 8 days [1]: > 100 µM
pIC50 (HBV): 5.48

O=c1c2ccccc2c(-c2ccc(NC3COC3)nc2F)nn1Cc1ccc(Cl)cc1 [Compound I-17]
CC50 at 8 days [1]: > 100 µM
pIC50 (HBV): 5.80
